Test results reported in ChEMBL document CHEMBL2440076, “New triarylpyrazoles as broad-spectrum anticancer agents: design, synthesis, and biological evaluation” (Eur J Med Chem, 2013).

What was measured:
OVCAR-4 = assay: Growth inhibition of human OVCAR4 cells assessed as cell growth at 10 uM after 48 hrs by sulforhodamine B assay; assay type: functional; settings: OVCAR-4, 48 h, read-out: Activity
SK-MEL-5 = assay: Growth inhibition of human SK-MEL-5 cells assessed as cell growth at 10 uM after 48 hrs by sulforhodamine B assay; assay type: functional; settings: SK-MEL-5, 48 h, read-out: Activity
M14 = assay: Growth inhibition of human M14 cells assessed as cell growth at 10 uM after 48 hrs by sulforhodamine B assay; assay type: functional; settings: M14, 48 h, read-out: Activity
LOX IMVI = assay: Growth inhibition of human LOXIMVI cells assessed as cell growth at 10 uM after 48 hrs by sulforhodamine B assay; assay type: functional; settings: read-out: Activity
HT-29 [1] = assay: Growth inhibition of human HT-29 cells assessed as cell growth at 10 uM after 48 hrs by sulforhodamine B assay; assay type: functional; settings: HT-29, 48 h, read-out: Activity
HCT-116 = assay: Growth inhibition of human HCT116 cells assessed as cell growth at 10 uM after 48 hrs by sulforhodamine B assay; assay type: functional; settings: HCT-116, 48 h, read-out: Activity
NCI-H23 = assay: Growth inhibition of human NCI-H23 cells assessed as cell growth at 10 uM after 48 hrs by sulforhodamine B assay; assay type: functional; settings: NCI-H23, 48 h, read-out: Activity
HT-29 [2] = assay: Growth inhibition of human HT-29 cells after 48 hrs by sulforhodamine B assay; assay type: functional; settings: HT-29, 48 h; for CC50: read-out: LC50 (the source's name)
MDA-MB-231 = assay: Growth inhibition of human MDA-MB-231 cells after 48 hrs by sulforhodamine B assay; assay type: functional; settings: MDA-MB-231, 48 h
PC-3 = assay: Growth inhibition of human PC3 cells after 48 hrs by sulforhodamine B assay; assay type: functional, cell-based; settings: PC-3, 48 h; for CC50: read-out: LC50 (the source's name)
SK-OV-3 = assay: Growth inhibition of human SKOV3 cells after 48 hrs by sulforhodamine B assay; assay type: functional; settings: SK-OV-3, 48 h; for CC50: read-out: LC50 (the source's name)
SNB-19 = assay: Growth inhibition of human SNB19 cells after 48 hrs by sulforhodamine B assay; assay type: functional; settings: SNB-19, 48 h

Row | SMILES | growth at 10 µM (OVCAR-4) | growth at 10 µM (SK-MEL-5) | growth at 10 µM (M14) | growth at 10 µM (LOX IMVI) | growth at 10 µM (HT-29 [1]) | growth at 10 µM (HCT-116) | growth at 10 µM (NCI-H23) | GI50 (HT-29 [2]) | TGI (HT-29 [2]) | CC50 (HT-29 [2]) | GI50 (MDA-MB-231) | LC50 (MDA-MB-231) | TGI (MDA-MB-231) | IC50 (PC-3) | CC50 (PC-3) | GI50 (SK-OV-3) | TGI (SK-OV-3) | CC50 (SK-OV-3) | GI50 (SNB-19) | LC50 (concentration killing 50% of cells) (SNB-19) | further results
1 | COc1cc(-c2nn(-c3cccc(NC(=O)Nc4ccccc4)c3)cc2-c2ccncc2)ccc1Cl | 90.5% | 79.9% | 85.7% | 85.4% | 84% | 87.2% | 100% |  |  |  |  |  |  |  |  |  |  |  |  |  | 
2 | COc1cc(-c2nn(-c3cccc(NC(=O)Nc4ccc(Cl)c(C(F)(F)F)c4)c3)cc2-c2ccncc2)ccc1Cl | 20.8% | -65.3% | -11.7% | 1.06% | -0.5% | 5.3% | 5.69% | 1.19 µM | 4.45 µM | 21.5 µM | 0.76 µM | 13.3 µM | 2.6 µM | 0.69 µM | > 32.5 µM | 1.45 µM | 13 µM | > 32.5 µM | 1.24 µM | > 32.5 µM | GI50 (PC-3): 0.69 µM; TGI (PC-3): 2.45 µM; TGI (SNB-19): 9.24 µM
3 | COc1cc(-c2nn(-c3cccc(NC(=O)c4ccccc4)c3)cc2-c2ccncc2)ccc1Cl | 46.5% | -49.4% | -3.82% | 17.4% | 2.03% | 8.58% | 33.8% | 0.392 µM | > 100 µM | > 100 µM | 1.17 µM | > 100 µM | 13.7 µM | 0.43 µM | > 100 µM | 1.07 µM | > 100 µM | > 100 µM | 0.86 µM | > 100 µM | GI50 (PC-3): 0.426 µM; TGI (PC-3): > 100 µM; TGI (SNB-19): > 100 µM
4 | COc1cc(-c2nn(-c3cccc(NC(=O)c4ccc(Br)c(C)c4)c3)cc2-c2ccncc2)ccc1Cl | 86.2% | 71% | 74.7% | 75.4% | 66.6% | 70.3% | 86.9% |  |  |  |  |  |  |  |  |  |  |  |  |  | 
5 | COc1cc(-c2nn(-c3cccc(NC(=O)c4ccc(Cl)c(C(F)(F)F)c4)c3)cc2-c2ccncc2)ccc1Cl | 66% | 17.5% | 26.2% | 32.2% | 50.1% | 24% | 58.9% | 3.38 µM | > 32.5 µM | > 32.5 µM | 1.2 µM | > 32.5 µM | > 32.5 µM | 1.29 µM | > 32.5 µM | 9.29 µM | > 32.5 µM | > 32.5 µM | 8.68 µM | > 32.5 µM | GI50 (PC-3): 1.29 µM; TGI (PC-3): > 32.5 µM; TGI (SNB-19): > 32.5 µM
6 | COc1cc(-c2nn(-c3cccc(NC(=O)c4ccc(N5CCOCC5)c(C(F)(F)F)c4)c3)cc2-c2ccncc2)ccc1Cl | 52.6% | 3.41% | 1.42% | 13.7% | -13.3% | 8.35% | 15.6% | 0.38 µM | 1.52 µM | > 100 µM | 0.299 µM | > 100 µM | 2.39 µM | 0.25 µM | > 100 µM | 0.34 µM | 4.73 µM | > 100 µM | 0.52 µM | > 100 µM | GI50 (PC-3): 0.251 µM; TGI (PC-3): 14.7 µM; TGI (SNB-19): > 100 µM
7 | O=C(Nc1cccc(-n2cc(-c3ccncc3)c(-c3ccc(Cl)c(O)c3)n2)c1)Nc1ccc(Cl)c(Cl)c1 | 29.4% | -40.2% | 17.2% | 21.9% | 45.9% | 11.1% | 13.5% | 4.89 µM | > 32.5 µM | > 32.5 µM | 1.18 µM | > 32.5 µM | 8.33 µM | 0.83 µM | > 32.5 µM | 1.2 µM | > 32.5 µM | > 32.5 µM | 1.46 µM | > 32.5 µM | GI50 (PC-3): 0.834 µM; TGI (PC-3): > 32.5 µM; TGI (SNB-19): > 32.5 µM
8 | O=C(Nc1cccc(-n2cc(-c3ccncc3)c(-c3ccc(Cl)c(O)c3)n2)c1)Nc1cccc(C(F)(F)F)c1 | 41.5% | -25.5% | 16.6% | 23.8% | 77.8% | 9.75% | 14.6% | 9.82 µM | > 32.5 µM | > 32.5 µM | 3.59 µM | > 32.5 µM | 26.8 µM | 0.95 µM | > 32.5 µM | 4.97 µM | > 32.5 µM | > 32.5 µM | 1.91 µM | > 32.5 µM | GI50 (PC-3): 0.948 µM; TGI (PC-3): 22.5 µM; TGI (SNB-19): > 32.5 µM
9 | O=C(Nc1cccc(-n2cc(-c3ccncc3)c(-c3ccc(Cl)c(O)c3)n2)c1)Nc1ccc(Cl)c(C(F)(F)F)c1 | -3.42% | -100% | -25.5% | -75.8% | -6.5% | -51% | -25.8% | 1.28 µM | 5.73 µM | 22.6 µM | 0.488 µM | 11.4 µM | 1.44 µM | 0.59 µM | > 32.5 µM | 1.34 µM | 14.9 µM | > 32.5 µM | 1.12 µM | > 32.5 µM | TGI (SNB-19): 4.86 µM
10 | O=C(Nc1cccc(-n2cc(-c3ccncc3)c(-c3ccc(Cl)c(O)c3)n2)c1)c1ccccc1 | 40.7% | 59.4% | 54.9% | 68.5% | 53.5% | 57.8% | 90.8% |  |  |  |  |  |  |  |  |  |  |  |  |  | 
11 | Cc1cc(C(=O)Nc2cccc(-n3cc(-c4ccncc4)c(-c4ccc(Cl)c(O)c4)n3)c2)ccc1Br | 108% | 94.4% | 89.5% | 86.4% | 107% | 94.4% | 97.9% |  |  |  |  |  |  |  |  |  |  |  |  |  | 
12 | O=C(Nc1cccc(-n2cc(-c3ccncc3)c(-c3ccc(Cl)c(O)c3)n2)c1)c1ccc(Cl)c(C(F)(F)F)c1 | 111% | 95.2% | 82.5% | 91.3% | 105% | 100% | 105% |  |  |  |  |  |  |  |  |  |  |  |  |  | 
